# Measurements taken from paper PMC7179653 (Antimicrobial Agents and Chemotherapy, 2020).
# Read-outs that look alike come from different tables or passages of the source.
# Experiment: SAD study: single-dose nacubactam pharmacokinetics (plasma/urine, LC-MS/MS, noncompartmental)
# Assay type: in vivo
# Conditions: human, iv; for AUC(0-inf) / AUC(0-t) / Cmax / Tmax / k el / clearance / Vd / half-life: plasma
# Method: Study treatments were administered as 30-min (SAD study) or 90-min (MAD study) i.v. infusions, the latter to investigate the pharmacokinetics using a longer infusion time, which is commonly used to increase the time above the MIC of β-lactams ([15]). The choice of a 90-min infusion time for the MAD study was dictated by the stability and toxicology data available at the time the study was being designed. […] Safety assessments included monitoring of AEs, laboratory safety tests (hematology, serum chemistry, and urinalysis), 12-lead ECG (discrete recordings and 24-h Holter recording), and vital signs (blood pressure, pulse rate, and body temperature). In the SAD study, safety assessments were performed predose at screening, at day 1, postdose periodically on days 1, 2, and 7 (follow-up), and at early withdrawal, if relevant. […] In the MAD study, safety assessments were done predose at screening, at day 2, postdose periodically on days 1, 2, 4, 7, and 8, on days 13 to 15 (follow-up), and at early withdrawal, if relevant. […] On all other days, a single predose sample was collected for pharmacokinetic evaluation prior to the morning infusion. Blood was collected into lithium-heparin tubes and stored at a nominal –80°C temperature until analysis.
# [1] = 1000 mg, single i.v. dose 1,000 mg, n = 6, mean (SD)
# [2] = 2000 mg, single i.v. dose 2,000 mg, n = 6, mean (SD)
# [3] = single i.v. dose 50 mg, n = 6, mean (SD)
# [4] = single i.v. dose 150 mg, n = 6, mean (SD)
# [5] = single i.v. dose 500 mg, n = 6, mean (SD)
smiles,measurement,setting,value
NCCONC(=O)[C@@H]1CC[C@@H]2CN1C(=O)N2OS(=O)(=O)O [Nacubactam],CL renal,"plasma and urine, single i.v. doses, 6.86 ± 0.64 to 9.66 ± 1.66, read-out: mean CLR (renal clearance), range over the five dose levels",114 to 161 mL/min
same,AUC(0-inf),[1],143000 ng·h/mL
same,AUC(0-t),[1],142000 ng·h/mL
same,Cmax,[1],72000 ng/mL
same,Tmax,[1],0.5 h
same,k el,[1],9.72e-05 s⁻¹
same,clearance,"1000 mg, single i.v. dose 1,000 mg, n = 6, mean (SD), read-out: CL (converted)",117 mL/min
same,Vd,"1000 mg, single i.v. dose 1,000 mg, n = 6, mean (SD), read-out: Vss",17 L
same,half-life,"1000 mg, single i.v. dose 1,000 mg, n = 6, mean (SD), read-out: t1/2 (converted)",2.05 h
same,AUC(0-inf),[2],229000 ng·h/mL
same,AUC(0-t),[2],229000 ng·h/mL
same,Cmax,[2],112000 ng/mL
same,Tmax,[2],0.5 h
same,k el,[2],8.61e-05 s⁻¹
same,clearance,"2000 mg, single i.v. dose 2,000 mg, n = 6, mean (SD), read-out: CL (converted)",146 mL/min
same,Vd,"2000 mg, single i.v. dose 2,000 mg, n = 6, mean (SD), read-out: Vss",20.6 L
same,half-life,"2000 mg, single i.v. dose 2,000 mg, n = 6, mean (SD), read-out: t1/2 (converted)",2.36 h
same,AUC(0-inf),[3],5210 ng·h/mL
same,AUC(0-t),[3],5080 ng·h/mL
same,Cmax,[3],2690 ng/mL
same,Tmax,[3],0.54 h
same,k el,[3],0.000106 s⁻¹
same,clearance,"single i.v. dose 50 mg, n = 6, mean (SD), read-out: CL (converted)",164 mL/min
same,Vd,"single i.v. dose 50 mg, n = 6, mean (SD), read-out: Vss",22.4 L
same,half-life,"single i.v. dose 50 mg, n = 6, mean (SD), read-out: t1/2 (converted)",1.83 h
same,AUC(0-inf),[4],16300 ng·h/mL
same,AUC(0-t),[4],16100 ng·h/mL
same,Cmax,[4],9020 ng/mL
same,Tmax,[4],0.5 h
same,k el,[4],0.000111 s⁻¹
same,clearance,"single i.v. dose 150 mg, n = 6, mean (SD), read-out: CL (converted)",157 mL/min
same,Vd,"single i.v. dose 150 mg, n = 6, mean (SD), read-out: Vss",20.2 L
same,half-life,"single i.v. dose 150 mg, n = 6, mean (SD), read-out: t1/2 (converted)",1.76 h
same,AUC(0-inf),[5],53900 ng·h/mL
same,AUC(0-t),[5],53600 ng·h/mL
same,Cmax,[5],31300 ng/mL
same,Tmax,[5],0.5 h
same,k el,[5],0.000108 s⁻¹
same,clearance,"single i.v. dose 500 mg, n = 6, mean (SD), read-out: CL (converted)",156 mL/min
same,Vd,"single i.v. dose 500 mg, n = 6, mean (SD), read-out: Vss",19.6 L
same,half-life,"single i.v. dose 500 mg, n = 6, mean (SD), read-out: t1/2 (converted)",1.77 h
same,clearance,"single i.v. doses 50 to 2,000 mg, read-out: mean CL, range across doses",117 to 164 mL/min
same,Vd,"single i.v. doses 50 to 2,000 mg, read-out: mean Vss, range across doses",17 to 22.4 L
same,half-life,"single i.v. doses, 1.76 ± 0.17 to 2.36 ± 0.46, read-out: mean apparent terminal elimination half-life (t1/2), range across doses",1.76 to 2.36 h
